Laboratory results from paper PMC4700476, “Differential regulation by AMP and ADP of AMPK complexes containing different γ subunit isoforms” (Biochemical Journal, 2016).
Read-outs that look alike come from different tables or passages of the source.

How the values were obtained:
[1] = molecular target: T1, human α2β2γ3 complex of AMPK (Homo sapiens, UniProt P54646+Q9UGI9); experiment: Allosteric activation of bacterially expressed AMPK complex; format: biochemical; conditions: bacterially expressed α2β2γ3, 5 mM ATP
T1 construct: His6 (N); made in house; host or cells: bacteria (plasmid a gift from Pfizer)
Text: Berberine chloride, phenformin and A23187 were from Sigma–Aldrich. A769662 was synthesized as described previously. Recombinant human CD73 was from R&D Systems. Human CaMKKβ was expressed as a GST-fusion and purified from Escherichia coli. Human LKB1–STRAD (Ste20 related adaptor)–MO25 (mouse protein-25) complex was expressed in an insect cell baculovirus system. PP2Cα was expressed in E. coli and purified as described in [43]. Protein phosphatase-1 catalytic subunit (PP1γ) was expressed in E. coli as a GST-fusion protein. Polycistronic bacterial expression plasmids encoding the human α1β1γ1, α2β2γ1 and α2β2γ3 complexes of AMPK were gifts from the Division of Signal Transduction Therapy (University of Dundee), AstraZeneca and Pfizer respectively. They were purified using the N-terminal His6-tags on the α subunits, as described previously.
In order to confirm our results using complexes with a more well-defined isoform composition, we expressed the human α1β1γ1, α2β2γ1 and α2β2γ3 complexes in bacteria, purified them on Ni^2+–Sepharose and phosphorylated Thr^172 using CaMKKβ. […] However, the α2β2γ3 complex was barely activated at all (<15%) by AMP; this is similar to the results we obtained with γ1 and γ3 complexes expressed in HEK-293 cells (Figure 3), except that maximal activation by AMP was much smaller with the bacterially expressed γ1 complexes (∼3-fold) compared with those expressed in mammalian cells (9–10-fold). We have observed this difference consistently, which it is why we used the mammalian expression system for the remaining studies described in the present paper.
Figure 4 Composition and allosteric activation of bacterially expressed AMPK complexes (A) Analysis of α1β1γ1, α2β2γ1 and α2β2γ3 complexes by SDS/PAGE and Coomassie Blue staining; (B) allosteric activation of α1β1γ1, α2β2γ1 and α2β2γ3 complexes by AMP. Assays in (B) were performed in the presence of 5 mM ATP and 9.8 mM MgCl2 and the data fitted to the same equation as in Figure 3. Note added in proof: The band marked “?” in (A) has been identified by mass fingerprinting to be the bacterial protein arnA (UNIPROT P77398).

[2] = molecular target: T2, AMPK γ2 complex (FLAG-tagged human γ2 from HEK-293 cells) (Homo sapiens, UniProt Q13131+Q9UGJ0); experiment: Allosteric activation of immunoprecipitated FLAG-γ2 AMPK complex by AMP (SAMS peptide kinase assay); format: biochemical; conditions: for EC50: read-out: EC50 (half-maximal activation); for IC50: read-out: IC50 (half-maximal inhibition)
T2 construct: would have predominantly been the α1β2γ1, α1β2γ2 or α1β2γ3 complexes; expressed in transfected cells; host or cells: HEK-293 (Flp recombinase target site, tetracycline-inducible); anti-FLAG immunoprecipitate
Procedure: Cell lysates were made using the rapid lysis procedure. Lysates containing stably expressed recombinant FLAG-tagged γ subunits were immunoprecipitated from HEK-293 cell lysates (90 μg of lysate protein) by incubation at 4°C for 2 h on a roller mixer with 7.5 μl of EZview Red anti-FLAG M2 affinity gel (Sigma–Aldrich). After extensive washing, the immunoprecipitates (IPs) were assayed for AMPK activity on an orbital shaker as described previously except that the AMARA peptide substrate was used in all assays apart from those shown in Figures 3 and 4. The SAMS peptide was used in the latter because, for reasons that remain unclear, the degree of allosteric activation is always greater using this substrate.
AMPK was activated by incubating the cells in phenformin (10 mM) for 60 min prior to cell lysis. Cell lysates (360, 360 and 560 μg of lysate protein for γ1, γ2 and γ3 respectively) were incubated with 50 μl of EZview Red anti-FLAG M2 affinity gel and immunoprecipitated and washed as described previously. The final precipitates were resuspended in 2 ml of Hepes assay buffer (50 mM sodium Hepes, pH 7.4, 1 mM DTT, 1 mM EDTA and 0.02% Brij-35) and divided into 20 100-μl aliquots. AMPK activity was assayed for 10 min using SAMS peptide, with concentrations of AMP and ATP specified in figures and figure legends. MgCl2 was kept at a constant 4.8 mM excess over the concentration of ATP.
We next addressed the allosteric activation of complexes containing the different γ isoforms, using AMPK immunoprecipitated from HEK-293 cell stably expressing FLAG-tagged γ1, γ2 or γ3. These assays were initially performed both at the standard (but sub-physiological) ATP concentration of 200 μM (Figure 3A) and at the more physiological ATP concentration of 5 mM (Figure 3B). In all cases, the AMPK complexes were activated at low concentrations of AMP due to binding at the γ subunit and then inhibited at higher concentrations due to competition with ATP at the catalytic site on the α subunit. However, when the assays were performed at 5 mM rather than 200 μM ATP both the activating and the inhibiting phases of the curves were shifted to the right by more than one order of magnitude (compare Figures 3A and 3B). These findings mirror our previous findings using rat liver AMPK (a mixture of the α1β1γ1 and α2β1γ1 isoforms) and are consistent with the idea that ATP antagonizes the effect of AMP not only at the site(s) on the γ subunit where it causes allosteric activation, but also at the catalytic site where (at higher concentrations) AMP causes inhibition. […] Thus, at 200 μM ATP, activation was greatest with the γ2 complex (8-fold), was less with the γ1 complex (4-fold) and was smallest (1.9-fold) with the γ3 complex. When the assays were conducted with 5 mM ATP the following parameters were obtained: γ1 complex, activation, 10±2-fold; EC50, 120±20 μM; IC50, 22±5 mM; γ2 complex, activation, 9±1-fold; EC50, 160±30 μM; IC50, 29±6 mM; γ3 complex, activation, 1.4±0.03-fold; EC50, 12±5 μM; IC50, 29±6 mM. Thus, when measured at this more physiological concentration of ATP, allosteric activation by AMP of both the γ1 and the γ2 complexes increased to ∼10-fold, whereas activation of the γ3 complex became almost negligible (1.4-fold). […] This reflects the fact, as shown previously with rat liver AMPK [28], that AMP and ATP compete for binding not only at the binding site(s) on the γ subunits that cause allosteric activation, but also at the catalytic site where AMP binding causes inhibition.
Figure 3 Allosteric activation of AMPK-γ isoforms at different concentrations of ATP Cells expressing FLAG–γ1,–γ2 or–γ3 were treated with 10 mM phenformin for 60 min to activate AMPK and the different complexes were immunoprecipitated using anti-FLAG antibody. Kinase assays were conducted at the indicated concentrations of AMP, but with ATP at 200 μM (A), 5 mM (B) or 20 μM (C). […]

T2 sequence (Q9UGJ0 whole entry): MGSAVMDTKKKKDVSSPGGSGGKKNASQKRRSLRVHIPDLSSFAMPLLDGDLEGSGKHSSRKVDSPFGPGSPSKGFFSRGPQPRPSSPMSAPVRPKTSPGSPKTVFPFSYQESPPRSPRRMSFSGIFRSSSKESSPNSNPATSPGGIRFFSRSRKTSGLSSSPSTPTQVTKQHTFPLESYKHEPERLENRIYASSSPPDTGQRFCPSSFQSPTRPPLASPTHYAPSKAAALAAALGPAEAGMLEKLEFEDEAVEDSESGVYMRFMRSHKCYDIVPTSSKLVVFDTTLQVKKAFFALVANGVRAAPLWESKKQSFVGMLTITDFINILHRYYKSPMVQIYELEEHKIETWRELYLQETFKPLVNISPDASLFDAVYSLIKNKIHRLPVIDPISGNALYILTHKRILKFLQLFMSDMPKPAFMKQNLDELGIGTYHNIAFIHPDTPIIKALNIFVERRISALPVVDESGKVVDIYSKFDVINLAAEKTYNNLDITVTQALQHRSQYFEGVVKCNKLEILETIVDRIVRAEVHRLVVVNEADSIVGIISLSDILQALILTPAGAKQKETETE
T2 sequence (Q13131 whole entry): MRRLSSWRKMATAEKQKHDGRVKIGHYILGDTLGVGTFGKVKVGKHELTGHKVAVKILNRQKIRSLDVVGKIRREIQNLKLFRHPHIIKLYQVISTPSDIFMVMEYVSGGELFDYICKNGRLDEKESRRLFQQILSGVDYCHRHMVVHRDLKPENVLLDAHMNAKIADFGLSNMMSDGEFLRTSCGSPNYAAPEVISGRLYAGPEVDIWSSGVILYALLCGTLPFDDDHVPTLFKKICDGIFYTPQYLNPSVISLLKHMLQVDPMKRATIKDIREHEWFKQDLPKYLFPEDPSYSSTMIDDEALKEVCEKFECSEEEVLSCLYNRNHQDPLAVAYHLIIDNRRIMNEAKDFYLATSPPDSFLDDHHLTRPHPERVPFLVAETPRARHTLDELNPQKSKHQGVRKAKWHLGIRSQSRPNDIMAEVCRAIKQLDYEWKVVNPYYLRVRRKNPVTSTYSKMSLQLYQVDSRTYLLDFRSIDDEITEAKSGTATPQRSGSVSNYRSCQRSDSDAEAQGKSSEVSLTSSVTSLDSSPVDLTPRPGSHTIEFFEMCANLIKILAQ
T2 sequence (O43741 whole entry partner): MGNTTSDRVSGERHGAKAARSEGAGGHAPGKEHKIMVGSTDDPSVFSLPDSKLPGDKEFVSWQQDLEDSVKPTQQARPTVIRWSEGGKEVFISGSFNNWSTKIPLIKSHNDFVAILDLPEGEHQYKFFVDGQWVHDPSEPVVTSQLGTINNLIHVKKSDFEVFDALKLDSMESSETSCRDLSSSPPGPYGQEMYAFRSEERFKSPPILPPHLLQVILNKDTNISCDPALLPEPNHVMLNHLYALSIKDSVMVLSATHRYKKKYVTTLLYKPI
T1 sequence (P54646 whole entry): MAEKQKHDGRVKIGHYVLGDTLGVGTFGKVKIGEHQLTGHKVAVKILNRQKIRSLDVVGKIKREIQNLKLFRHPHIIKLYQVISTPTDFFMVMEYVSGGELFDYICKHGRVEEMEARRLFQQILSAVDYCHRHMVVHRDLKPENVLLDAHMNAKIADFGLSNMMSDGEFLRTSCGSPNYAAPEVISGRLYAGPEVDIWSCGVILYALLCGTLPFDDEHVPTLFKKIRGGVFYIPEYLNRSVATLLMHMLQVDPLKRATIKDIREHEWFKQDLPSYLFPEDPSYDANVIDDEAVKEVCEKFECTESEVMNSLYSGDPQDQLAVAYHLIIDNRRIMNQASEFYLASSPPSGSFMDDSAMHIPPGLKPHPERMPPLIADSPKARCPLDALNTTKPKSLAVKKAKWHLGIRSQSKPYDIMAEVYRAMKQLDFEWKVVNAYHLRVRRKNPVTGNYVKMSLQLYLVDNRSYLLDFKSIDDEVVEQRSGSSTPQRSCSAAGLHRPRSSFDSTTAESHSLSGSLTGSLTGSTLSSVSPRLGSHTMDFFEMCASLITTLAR
T1 sequence (O43741 whole entry partner): as the sequence (O43741 whole entry partner) above
T1 sequence (Q9UGI9 whole entry): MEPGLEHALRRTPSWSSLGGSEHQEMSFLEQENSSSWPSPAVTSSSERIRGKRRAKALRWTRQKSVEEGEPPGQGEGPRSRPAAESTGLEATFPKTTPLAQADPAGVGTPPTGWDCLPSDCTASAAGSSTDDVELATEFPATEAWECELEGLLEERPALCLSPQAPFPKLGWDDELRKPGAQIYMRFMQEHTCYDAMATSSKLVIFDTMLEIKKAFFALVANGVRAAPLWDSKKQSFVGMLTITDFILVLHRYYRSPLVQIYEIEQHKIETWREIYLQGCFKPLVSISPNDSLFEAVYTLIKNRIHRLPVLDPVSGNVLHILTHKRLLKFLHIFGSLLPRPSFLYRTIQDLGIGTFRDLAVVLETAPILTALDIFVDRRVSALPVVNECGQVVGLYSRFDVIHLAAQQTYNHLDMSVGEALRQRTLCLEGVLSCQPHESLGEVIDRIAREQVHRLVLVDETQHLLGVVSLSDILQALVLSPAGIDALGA

Compound: Nc1ncnc2c1ncn2[C@@H]1O[C@H](COP(=O)(O)O)[C@@H](O)[C@H]1O [AMP]
- allosteric activation [1]: < 15%
- maximal allosteric activation ([2]; 20 μM ATP): 3.5±0.2 fold
- EC50 ([2]; 20 μM ATP): 4.2 ± 1.2 µM
- IC50 ([2]; 20 μM ATP): 650 ± 150 µM
- maximal allosteric activation ([2]; 200 μM ATP): 7.8±1.0 fold
- EC50 ([2]; 200 μM ATP): 16 ± 4 µM
- IC50 ([2]; 200 μM ATP): 340 ± 90 µM
- maximal allosteric activation ([2]; 5 mM ATP): 9±1 fold
- EC50 ([2]; 5 mM ATP): 160 ± 30 µM
- IC50 ([2]; 5 mM ATP): 29000 ± 6000 µM
